Results on 2 molecules are retold here after patent US20180179174A1, “12H-BENZO[b]XANTHEN-12-ONES, COMPOSITIONS CONTAINING, AND USES OF, SAME” (Thesan Pharmaceuticals, Inc., priority 2015, published 2018).

The structures appear in SMILES notation.

Usually fold induction stands for the ratio of treated to control signal. A higher fold induction goes with a large rise in signal.

Data set [1] has as its target T1, Aryl Hydrocarbon Receptor (Homo sapiens, UniProt P35869).
T1 construct: endogenous in cells; host or cells: normal human keratinocytes (NHK) transduced with the reporter lentivector plox-XRE TATA-Luc
T1 sequence (P35869 11-848): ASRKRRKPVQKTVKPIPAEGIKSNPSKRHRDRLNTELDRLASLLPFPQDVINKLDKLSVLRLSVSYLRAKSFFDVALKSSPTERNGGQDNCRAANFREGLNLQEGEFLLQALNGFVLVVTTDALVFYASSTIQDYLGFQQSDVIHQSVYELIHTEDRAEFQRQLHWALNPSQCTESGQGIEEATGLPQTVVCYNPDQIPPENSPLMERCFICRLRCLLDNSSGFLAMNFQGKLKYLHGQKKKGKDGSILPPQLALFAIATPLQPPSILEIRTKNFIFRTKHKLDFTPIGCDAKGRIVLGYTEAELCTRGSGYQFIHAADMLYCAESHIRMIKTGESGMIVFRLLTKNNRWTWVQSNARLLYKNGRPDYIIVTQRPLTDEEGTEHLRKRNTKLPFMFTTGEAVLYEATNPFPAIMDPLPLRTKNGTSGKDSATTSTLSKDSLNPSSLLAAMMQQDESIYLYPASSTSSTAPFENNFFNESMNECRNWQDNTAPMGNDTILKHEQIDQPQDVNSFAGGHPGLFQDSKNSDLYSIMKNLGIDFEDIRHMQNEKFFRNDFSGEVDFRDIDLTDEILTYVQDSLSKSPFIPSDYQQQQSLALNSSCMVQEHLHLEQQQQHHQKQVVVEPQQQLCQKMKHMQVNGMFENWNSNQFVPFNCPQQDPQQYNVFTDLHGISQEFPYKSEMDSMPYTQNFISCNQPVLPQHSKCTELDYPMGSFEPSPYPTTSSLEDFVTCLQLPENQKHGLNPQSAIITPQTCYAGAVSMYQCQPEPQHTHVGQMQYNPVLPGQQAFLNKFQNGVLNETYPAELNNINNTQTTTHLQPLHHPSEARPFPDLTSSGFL
Kind of data set: AhR activation, luciferase reporter (plox-XRE TATA-Luc) in HEP G2 cells. In kind it is cell-based. Particulars: 24 h, 1-10 uM. As for the experimental part:
AhR activation is measured in HEP G2 cells (hepatocytes, Hep G2 is a human liver carcinoma cell line) stably transfected with the lentivector plox-XRE TATA-Luc. The Hep G2 cells are cultured in a growing media consisting of DMEM (Gibco)+10% fetal bovine serum+penicillin+streptomycin. At D0, the Hep G2 cells are seeded into 12-well plates in proportions of approximately 30,000 cells/cm^2. After 24 h, the medium is replaced with fresh medium and the cells are transduced with the lentivector plox-XRE TATA-Luc. After 48 h, the cells are subcultured and maintained in culture, and tested for their reactivity to 3-phenyl-1H-benzo[f]chromen-1-one. The tests are carried out using the luciferase reporter assay system kit from Promega. At D0, the cells are seeded at a density of approximately 60% confluence, and then treated, at D1, with the test substance diluted to various concentrations in the appropriate culture medium. At D2, the cells are lysed in CLB buffer, and the lysate is clarified by centrifugation for 5 min at 10 000 g. The luciferase activity is measured in 20 microliters of lysate as recommended by the supplier, using the luminoskan luminometer (Thermo). […] Data is processed and EC50's can be calculated from standard data monitoring software.
A general note: Reporter assays use an easily measured gene product as a stand-in for the process of interest.

In data set [2] the target is T1, Aryl Hydrocarbon Receptor. Kind of data set: AhR activation, luciferase reporter (plox-XRE TATA-Luc) in normal human keratinocytes. Type of data set: cell-based. Particulars: NHK-plox-XRE TATA-Luc cells, 24 h, 1-10 uM. As for the experimental part: AhR activation is also measured in human skin cells such as normal human keratinocytes (NHK cells) or A431 epidermoid cells stably transfected with the lentivector plox-XRE TATA-Luc. The NHK cells are cultured in a specific keratinocyte SFM medium (Gibco)+penicillin+streptomycin. At D0, the NHK cells are seeded into 6-well plates in a proportion of approximately 15,000 cells/cm^2. After 24 h, the medium is replaced with fresh medium and the cells are transduced with the lentivector plox-XRE TATA-Luc. After 48 h, the cells are subcultured and maintained in culture, and tested for their reactivity to 3-phenyl-1H-benzo[f]chromen-1-one. The tests are carried out using the luciferase reporter assay system kit from Promega. At D0, the cells are seeded at a density of approximately 60% confluence, and then treated, at D1, with the test substance diluted to various concentrations in the appropriate culture medium. At D2, the cells are lysed in CLB buffer, and the lysate is clarified by centrifugation for 5 min at 10 000 g. The luciferase activity is measured in 20 microliters of lysate as recommended by the supplier, using the luminoskan luminometer (Thermo). […] Data is processed and EC50's can be calculated from standard data monitoring software.

In data set [3] the test system is CYP1A1. Kind of data set: CYP1A1 activity test (P450-GLO) in HEP G2 or NHK cells. In kind it is cell-based, human. Particulars: 24 h, 1-10um, control compound. As to the method:
The essential methodology for culture and handling of HEP G2 cells and NHK cells has been described in Examples 2 and 3. The tests are carried out using the P450-GLO assay kit from Promega. At D0, the cells are seeded at a density of approximately 60% confluence, and then treated at D1 with the test substance diluted to various concentrations in the appropriate culture medium. At D2, the CYP1A1 activity is measured as recommended by the supplier, using the non-lytic protocol on a cell monolayer.

For data set [4], the system named is CYP1A1. The data set can be described thus: Induction of Cyp1A1 in HEP G2 cells (EROD assay). In kind it is cell-based. Particulars: human, probe 7-ethoxyresorufin (8 μM), HepG2 cells, 1-10 μM range, vs solvent. As to the method: The essential methodology for culture and handling of HEP G2 cells and NHK cells has been described in Examples 2 and 3. HepG2 cells are seeded at between 1×10^4 and 2.5×10^4 cells/well in a 96-well microtitre plate. […] The formation of resorufin is quantified by fluorometry with a fluorescence plate reader. Fluorescence is determined at λex 570 nm and λem 590 nm. The amount of resorufin is calculated from a standard curve generated using 0 to 1 μM resorufin in water at ½ log dilutions. The remaining (i.e. all cells present at the beginning of analysis, since only supernatant is taken to assay EROD) live cells are subsequently utilized for the MIT cytotoxicity assay. MTT is made up in serum-free medium at 5 mg/ml. then added to the cells giving a final concentration of 10% (0.5 mg/ml MTT final) then incubated for 2 h. The medium is carefully removed, then MTT formazan is solubilized by adding 200 μl of DMSO and subsequently mixed on a plate shaker. The absorbance is measured spectrophotometrically at 550 nm and background absorbance at 690 nm is subtracted. A standard curve generated using MTT formazan (dissolved in DMSO) from 0-200 μM (0, 2, 5, 10, 20, 50, 100, 200 μM) is used to calculate the final experimental values which are then expressed as (μmol resorufin/mol MIT formazan) or as fold-induction compared to solvent.

A further data set deals with sebaceous glands. The data set can be described thus: Mouse ear assay for determination of sebaceous gland prevalence. In kind it is in vivo, C57BL/6J male mice. Particulars: 0.7% in DMSO:acetone 50:50, 80 ul dermal twice a day for five days, vs controls. As for the experimental part: C57BL/6J male mice (Harlan Models), approximately 4-5 weeks of age, body weight 20-30 g, were acclimatized (individually housed) for 5 days in a 12 hour light/dark cycle standard laboratory environment (T=20-24° C., relative humidity 30-70%, 15-20 air changes per hour) with access to water and standard rodent chow (Harlan Teklad 2014C supplied by Harlan Laboratories Models, S.L.) ad libitum. […] All animals were monitored daily for reaction to the treatment, signs of illness, and behavioral changes. Body weights were recorded before the first administration and immediately prior to sacrifice. Approximately 12 to 16 hours after the final administration on day 5 the mice were sacrificed by i.p. injection of sodium pentobarbital (200 mg/kg) and the ears were collected. Each ear was sectioned into two halves. For each animal, one-half of one ear was fixed, in neutral phosphate-buffered 4% formaldehyde solution (4% formalin). This trimmed section of the ear was then processed, embedded in paraffin wax and stored at room temperature. The remaining half of that ear and the entire opposite ear was frozen at −80° C. Wax mounted ear pieces were sectioned with a microtome and stained with hematoxylin and eosin. Sebaceous glands were identified visually by their structures. […]

Take `O=c1cc(-c2ccccc2)oc2ccc3ccccc3c12` [3-phenyl-1H-benzo[f]chromen-1-one]: the “induction of the luciferase activity” value in data set [1] was “significant induction”. The “induction (luciferase activity)” value in data set [2] is “significant induction”. For the same molecule, the “induction of the CYP1A1 activity” value in the data set with CYP1A1 [3] is given as “significant induction”.

Molecule `O=c1c2ccccc2oc2cc3ccccc3cc12` [compound A] gave a fold induction at 24 h with CYP1A1 [4] of more than 20. Moreover, in the data set on sebaceous glands, the “number of differentiated sebocytes” value is given as “reduction” and the “number of sebaceous glands” value was “clear reduction”.
